Results as given in ChEMBL document CHEMBL4507269, “Data for DCP probe BAY-386” (2021).
pIC50: −log10 of the molar value. Active and inactive are the calls of the source. The calls are words filed in the database; no cut-off is given here.

Key:
Rattus norvegicus [1] = organism: Rattus norvegicus; assay: Testosterone Eurofins-Panlabs radioligand binding assay; parameters: ligand concentration 1.5 nM; conditions: Compound concentration 10.0 uM
Platelet [2] = assay: Inhibition of platelet aggregation (human plasma, thrombin); type: cell-based
[3] = target: Cannabinoid receptor 1 (Homo sapiens) (UniProt P21554); conditions: Compound concentration 10.0 uM
Mus musculus = organism: Mus musculus; assay: Inhibition of Phorbol Ester at 10 µM in the Eurofins-Panlabs radioligand binding assay (Eurofins_assay_264500); parameters: ligand concentration 3 nM; conditions: Compound concentration 10.0 uM
Homo sapiens = organism: Homo sapiens; assay: Inhibition of Nicotinic Acetylcholine at compound concentration of 10.0 uM in the Eurofins-Panlabs radioligand binding assay (Eurofins_assay_258590); type: protein-complex assay; conditions: Compound concentration 10.0 uM
Platelet [4] = assay: Inhibition of platelet aggregation (human plasma, ADP, Collagen); type: cell-based
[5] = target: Sodium-dependent noradrenaline transporter (Homo sapiens) (UniProt P23975); conditions: Compound concentration 10.0 uM
[6] = target: Sodium-dependent noradrenaline transporter (Homo sapiens) (UniProt P23975); conditions: Compound concentration 10.0 uM; remark: listed apart in the source
hERG (KCNH2) = hERG (KCNH2) (Homo sapiens, UniProt Q12809); assay: Inhibition of Potassium Channel hERG at 10 µM in the Eurofins-Panlabs radioligand binding assay (Eurofins_assay_265900); parameters: ligand concentration 1.5 nM, non-specific ligand with concentration Astemizole, incubation time 60 min, incubation temperature 25 °C; conditions: HEK-293 cells that express human recombinant hERG, probe [3H] Astemizole, compound concentration 10 uM
[7] = target: Epidermal growth factor receptor (Homo sapiens) (UniProt P00533); assay: Inhibition of Epidermal Growth Factor (EGF) at 10 µM in the Eurofins-Panlabs radioligand binding assay (Eurofins_assay_225510); conditions: Compound concentration 10.0 uM
[8] = target: T1, Muscarinic acetylcholine receptor M2 (Homo sapiens) (UniProt P08172); conditions: Compound concentration 10.0 uM
T1 sequence (whole entry): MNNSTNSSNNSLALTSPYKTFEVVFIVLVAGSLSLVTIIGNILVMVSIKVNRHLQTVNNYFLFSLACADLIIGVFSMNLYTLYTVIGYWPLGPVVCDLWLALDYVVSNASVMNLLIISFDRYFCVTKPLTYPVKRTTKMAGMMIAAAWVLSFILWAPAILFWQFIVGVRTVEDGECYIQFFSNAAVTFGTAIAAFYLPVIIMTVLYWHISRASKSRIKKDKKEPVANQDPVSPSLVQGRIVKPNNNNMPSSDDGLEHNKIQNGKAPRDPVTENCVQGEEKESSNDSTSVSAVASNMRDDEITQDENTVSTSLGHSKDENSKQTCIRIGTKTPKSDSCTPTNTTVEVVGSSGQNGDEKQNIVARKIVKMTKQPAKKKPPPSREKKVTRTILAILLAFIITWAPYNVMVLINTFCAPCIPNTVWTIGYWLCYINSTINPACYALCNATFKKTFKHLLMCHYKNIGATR

[9] = target: Estrogen receptor (Homo sapiens) (UniProt P03372); conditions: Compound concentration 10.0 uM
[10] = target: Adenosine receptor A1 (Homo sapiens) (UniProt P30542); conditions: Compound concentration 10.0 uM
Rattus norvegicus [11] = organism: Rattus norvegicus; assay: Inhibition of Imidazoline I2, Central at 10 µM in the Eurofins-Panlabs radioligand binding assay (Eurofins_assay_241000); parameters: ligand concentration 2 nM; conditions: Compound concentration 10.0 uM
[12] = target: Gamma-aminobutyric acid type B receptor subunit 1 (Homo sapiens) (UniProt Q9UBS5); assay: Inhibition of GABAB1A at compound concentration of 10.0 uM in the Eurofins-Panlabs radioligand binding assay (Eurofins_assay_228610); parameters: ligand concentration 4 nM; conditions: Compound concentration 10.0 uM
Rattus norvegicus [13] = organism: Rattus norvegicus; assay: Inhibition of Thyroid Hormone at 10 µM in the Eurofins-Panlabs radioligand binding assay (Eurofins_assay_285900); type: protein assay; conditions: Compound concentration 10.0 uM
[14] = target: Sigma non-opioid intracellular receptor 1 (Homo sapiens) (UniProt Q99720); assay: Sigma 1 Eurofins-Panlabs radioligand binding assay; parameters: ligand concentration 8 nM; conditions: Compound concentration 10.0 uM
[15] = target: Histamine H2 receptor (Homo sapiens) (UniProt P25021); conditions: Compound concentration 10.0 uM
[16] = target: Purinergic P2Y (Rattus norvegicus) (UniProt O35811+Q9EPX4+P49651+Q63371+P41232+O35881+Q6GUG4); conditions: Compound concentration 10.0 uM
[17] = target: Sigma non-opioid intracellular receptor 1 (Homo sapiens) (UniProt Q99720); conditions: Compound concentration 10.0 uM
[18] = target: B1 bradykinin receptor (Homo sapiens) (UniProt P46663); assay: Inhibition of Bradykinin B1 at 10 µM in the Eurofins-Panlabs radioligand binding assay (Eurofins_assay_212510); conditions: Compound concentration 10.0 uM
[19] = target: T2, Proteinase-activated receptor 1 (Homo sapiens, UniProt P25116); assay: Binding assay (platelet membranes)
T2 sequence (P25116 whole entry): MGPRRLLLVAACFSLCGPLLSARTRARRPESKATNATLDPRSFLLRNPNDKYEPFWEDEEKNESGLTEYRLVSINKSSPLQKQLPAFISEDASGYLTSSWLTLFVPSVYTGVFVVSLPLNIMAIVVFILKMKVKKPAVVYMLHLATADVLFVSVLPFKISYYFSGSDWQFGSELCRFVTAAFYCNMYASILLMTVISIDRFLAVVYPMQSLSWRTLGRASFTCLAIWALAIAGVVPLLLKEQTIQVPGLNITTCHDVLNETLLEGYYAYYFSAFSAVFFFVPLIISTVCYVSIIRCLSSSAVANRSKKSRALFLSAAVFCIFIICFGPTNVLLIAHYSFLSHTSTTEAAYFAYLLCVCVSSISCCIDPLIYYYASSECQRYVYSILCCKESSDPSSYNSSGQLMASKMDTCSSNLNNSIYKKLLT

[20] = target: GABA-A receptor; anion channel (Rattus norvegicus) (UniProt O09028+P15431+P18506+P18508+P19969+P20236+P23574+P23576+P28471+P28473+P30191+P62813+P63079+P63138+Q91ZM7+Q9ES14); assay: Inhibition of GABAA, Muscimol, Central at 10 µM in the Eurofins-Panlabs radioligand binding assay (Eurofins_assay_226500); type: protein-complex assay; conditions: Compound concentration 10.0 uM
[21] = target: Adenosine receptor A2a (Homo sapiens) (UniProt P29274); conditions: Compound concentration 10.0 uM
Rattus norvegicus [22] = organism: Rattus norvegicus; assay: Inhibition of Rolipram at 10 µM in the Eurofins-Panlabs radioligand binding assay (Eurofins_assay_268811); type: protein assay; parameters: ligand concentration 1.8 nM; conditions: Compound concentration 10.0 uM
[23] = target: Prostaglandin E2 receptor EP4 subtype (Homo sapiens) (UniProt P35408); assay: Inhibition of Prostanoid EP4 at 10 µM in the Eurofins-Panlabs radioligand binding assay (Eurofins_assay_268420); parameters: ligand concentration 1 nM; conditions: Compound concentration 10.0 uM
[24] = target: Kappa-type opioid receptor (Homo sapiens) (UniProt P41145); assay: kappa (KOP) (h) Eurofins-Cerep Cellular and Nuclear Receptor Functional Assays; conditions: Compound concentration 10.0 uM
[25] = target: 5-hydroxytryptamine receptor 3A (Homo sapiens) (UniProt P46098); conditions: Compound concentration 10.0 uM
[26] = target: 5-hydroxytryptamine receptor 1E (Homo sapiens) (UniProt P28566); conditions: Compound concentration 10.0 uM
Sequence of 5-hydroxytryptamine receptor 1E (Homo sapiens) (P28566 whole entry): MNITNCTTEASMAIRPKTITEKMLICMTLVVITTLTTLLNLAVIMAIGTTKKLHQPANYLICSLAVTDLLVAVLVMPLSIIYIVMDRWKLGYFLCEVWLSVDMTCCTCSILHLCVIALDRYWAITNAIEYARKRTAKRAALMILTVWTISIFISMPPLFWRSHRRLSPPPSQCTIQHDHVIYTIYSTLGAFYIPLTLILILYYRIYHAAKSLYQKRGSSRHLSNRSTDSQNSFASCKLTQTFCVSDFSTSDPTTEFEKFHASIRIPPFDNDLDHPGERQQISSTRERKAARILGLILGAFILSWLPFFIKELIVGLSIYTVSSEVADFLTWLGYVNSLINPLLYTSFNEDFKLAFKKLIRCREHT

Sequence of Sodium-dependent noradrenaline transporter (Homo sapiens) (P23975 whole entry): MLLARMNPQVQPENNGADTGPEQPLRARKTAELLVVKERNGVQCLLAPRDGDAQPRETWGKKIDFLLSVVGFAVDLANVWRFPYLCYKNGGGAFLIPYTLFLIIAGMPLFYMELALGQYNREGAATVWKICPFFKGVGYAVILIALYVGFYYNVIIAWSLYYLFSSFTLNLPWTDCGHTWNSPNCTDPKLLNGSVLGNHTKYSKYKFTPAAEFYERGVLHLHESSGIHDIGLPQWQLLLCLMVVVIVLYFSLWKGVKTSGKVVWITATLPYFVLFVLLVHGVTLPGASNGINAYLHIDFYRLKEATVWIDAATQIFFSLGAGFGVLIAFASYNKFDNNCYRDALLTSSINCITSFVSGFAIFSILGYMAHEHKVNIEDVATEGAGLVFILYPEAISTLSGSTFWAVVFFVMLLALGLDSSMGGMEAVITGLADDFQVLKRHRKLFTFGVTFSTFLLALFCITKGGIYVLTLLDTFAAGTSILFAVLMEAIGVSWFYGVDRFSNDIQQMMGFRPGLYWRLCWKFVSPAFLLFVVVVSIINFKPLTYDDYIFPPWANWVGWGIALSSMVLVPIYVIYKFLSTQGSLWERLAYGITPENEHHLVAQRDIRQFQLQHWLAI
Sequence of Sigma non-opioid intracellular receptor 1 (Homo sapiens) (Q99720 whole entry): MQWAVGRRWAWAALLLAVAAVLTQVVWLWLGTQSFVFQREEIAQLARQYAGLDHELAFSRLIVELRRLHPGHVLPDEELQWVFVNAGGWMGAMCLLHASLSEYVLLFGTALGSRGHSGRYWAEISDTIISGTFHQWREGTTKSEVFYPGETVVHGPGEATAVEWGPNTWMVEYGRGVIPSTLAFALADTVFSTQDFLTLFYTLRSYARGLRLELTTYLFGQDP
Sequence of Kappa-type opioid receptor (Homo sapiens) (P41145 whole entry): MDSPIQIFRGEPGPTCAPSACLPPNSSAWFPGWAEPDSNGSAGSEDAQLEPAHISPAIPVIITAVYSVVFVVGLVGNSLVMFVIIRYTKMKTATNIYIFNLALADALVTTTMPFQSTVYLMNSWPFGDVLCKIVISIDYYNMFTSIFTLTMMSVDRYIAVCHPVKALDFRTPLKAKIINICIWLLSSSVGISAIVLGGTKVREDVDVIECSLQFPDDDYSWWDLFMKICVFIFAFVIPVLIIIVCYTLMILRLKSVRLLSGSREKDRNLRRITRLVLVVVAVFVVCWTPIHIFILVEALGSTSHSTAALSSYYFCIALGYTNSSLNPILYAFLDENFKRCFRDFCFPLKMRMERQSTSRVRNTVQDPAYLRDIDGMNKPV
Sequence of Estrogen receptor (Homo sapiens) (P03372 whole entry): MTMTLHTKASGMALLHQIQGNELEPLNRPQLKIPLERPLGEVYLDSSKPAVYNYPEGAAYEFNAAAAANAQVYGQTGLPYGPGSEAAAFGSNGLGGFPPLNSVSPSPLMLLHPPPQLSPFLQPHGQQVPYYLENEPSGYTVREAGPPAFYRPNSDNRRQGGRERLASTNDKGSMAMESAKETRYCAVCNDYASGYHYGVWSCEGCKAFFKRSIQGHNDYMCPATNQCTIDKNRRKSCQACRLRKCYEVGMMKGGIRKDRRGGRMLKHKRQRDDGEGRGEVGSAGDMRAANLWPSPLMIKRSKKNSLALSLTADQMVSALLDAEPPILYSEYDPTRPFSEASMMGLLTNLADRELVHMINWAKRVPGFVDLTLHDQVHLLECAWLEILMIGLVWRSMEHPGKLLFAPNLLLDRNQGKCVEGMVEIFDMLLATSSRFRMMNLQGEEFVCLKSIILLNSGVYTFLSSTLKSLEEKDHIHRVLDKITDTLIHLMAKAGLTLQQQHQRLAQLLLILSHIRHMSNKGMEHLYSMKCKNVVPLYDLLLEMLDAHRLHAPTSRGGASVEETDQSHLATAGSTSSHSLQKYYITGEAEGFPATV
Sequence of Gamma-aminobutyric acid type B receptor subunit 1 (Homo sapiens) (Q9UBS5 whole entry): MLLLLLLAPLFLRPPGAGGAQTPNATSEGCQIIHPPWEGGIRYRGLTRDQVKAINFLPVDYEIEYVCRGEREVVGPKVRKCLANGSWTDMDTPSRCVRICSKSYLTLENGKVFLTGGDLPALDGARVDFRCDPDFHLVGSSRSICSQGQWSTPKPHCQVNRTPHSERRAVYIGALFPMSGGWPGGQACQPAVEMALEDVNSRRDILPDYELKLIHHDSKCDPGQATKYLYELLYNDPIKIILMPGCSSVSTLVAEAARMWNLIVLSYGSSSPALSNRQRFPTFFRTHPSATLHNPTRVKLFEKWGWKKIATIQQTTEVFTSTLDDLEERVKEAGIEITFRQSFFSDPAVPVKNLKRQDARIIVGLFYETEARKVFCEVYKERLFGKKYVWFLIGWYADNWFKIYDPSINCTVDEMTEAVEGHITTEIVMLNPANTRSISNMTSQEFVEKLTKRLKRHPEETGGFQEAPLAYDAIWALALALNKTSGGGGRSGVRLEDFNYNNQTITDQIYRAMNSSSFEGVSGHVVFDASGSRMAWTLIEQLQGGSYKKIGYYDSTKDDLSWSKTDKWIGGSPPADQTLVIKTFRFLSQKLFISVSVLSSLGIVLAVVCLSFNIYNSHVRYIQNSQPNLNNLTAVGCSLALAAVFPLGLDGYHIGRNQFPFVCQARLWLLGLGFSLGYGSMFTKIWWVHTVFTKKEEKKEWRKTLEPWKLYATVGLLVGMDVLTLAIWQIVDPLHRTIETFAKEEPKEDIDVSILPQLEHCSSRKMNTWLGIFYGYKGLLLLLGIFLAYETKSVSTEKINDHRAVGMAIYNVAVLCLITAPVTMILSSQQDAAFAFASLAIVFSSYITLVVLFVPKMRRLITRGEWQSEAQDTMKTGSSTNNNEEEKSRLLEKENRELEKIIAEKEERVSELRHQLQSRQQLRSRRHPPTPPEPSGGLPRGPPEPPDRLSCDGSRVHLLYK
Sequence of hERG (KCNH2) (Q12809 whole entry): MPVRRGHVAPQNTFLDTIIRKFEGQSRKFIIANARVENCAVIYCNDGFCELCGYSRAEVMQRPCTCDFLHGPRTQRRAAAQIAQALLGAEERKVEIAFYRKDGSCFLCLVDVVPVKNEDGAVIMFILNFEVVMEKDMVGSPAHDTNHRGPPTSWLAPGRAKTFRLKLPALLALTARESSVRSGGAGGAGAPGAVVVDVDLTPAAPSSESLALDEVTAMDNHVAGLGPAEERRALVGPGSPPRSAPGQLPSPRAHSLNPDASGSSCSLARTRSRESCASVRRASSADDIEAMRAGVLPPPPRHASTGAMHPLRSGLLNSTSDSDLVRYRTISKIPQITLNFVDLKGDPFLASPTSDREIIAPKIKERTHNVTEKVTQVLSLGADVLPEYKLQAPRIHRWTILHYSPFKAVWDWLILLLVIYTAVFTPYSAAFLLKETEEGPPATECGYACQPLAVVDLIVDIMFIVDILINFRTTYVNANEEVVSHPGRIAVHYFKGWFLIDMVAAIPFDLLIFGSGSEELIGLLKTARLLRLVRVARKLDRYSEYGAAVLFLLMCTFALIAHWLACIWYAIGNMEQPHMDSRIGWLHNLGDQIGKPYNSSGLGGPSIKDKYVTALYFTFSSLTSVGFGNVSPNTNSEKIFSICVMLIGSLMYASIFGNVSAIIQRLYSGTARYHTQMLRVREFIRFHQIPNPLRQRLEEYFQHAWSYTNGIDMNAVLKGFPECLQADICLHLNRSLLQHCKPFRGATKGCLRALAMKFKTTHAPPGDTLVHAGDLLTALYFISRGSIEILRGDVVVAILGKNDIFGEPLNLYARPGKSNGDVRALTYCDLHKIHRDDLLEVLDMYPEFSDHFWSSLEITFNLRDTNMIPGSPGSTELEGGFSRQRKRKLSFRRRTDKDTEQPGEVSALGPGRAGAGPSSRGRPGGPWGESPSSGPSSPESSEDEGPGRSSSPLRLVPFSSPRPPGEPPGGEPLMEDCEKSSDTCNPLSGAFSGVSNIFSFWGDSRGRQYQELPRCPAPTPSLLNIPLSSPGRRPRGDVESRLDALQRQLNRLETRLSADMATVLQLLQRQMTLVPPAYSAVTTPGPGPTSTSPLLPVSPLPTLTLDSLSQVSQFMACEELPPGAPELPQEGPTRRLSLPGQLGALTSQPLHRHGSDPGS
Sequence of Prostaglandin E2 receptor EP4 subtype (Homo sapiens) (P35408 whole entry): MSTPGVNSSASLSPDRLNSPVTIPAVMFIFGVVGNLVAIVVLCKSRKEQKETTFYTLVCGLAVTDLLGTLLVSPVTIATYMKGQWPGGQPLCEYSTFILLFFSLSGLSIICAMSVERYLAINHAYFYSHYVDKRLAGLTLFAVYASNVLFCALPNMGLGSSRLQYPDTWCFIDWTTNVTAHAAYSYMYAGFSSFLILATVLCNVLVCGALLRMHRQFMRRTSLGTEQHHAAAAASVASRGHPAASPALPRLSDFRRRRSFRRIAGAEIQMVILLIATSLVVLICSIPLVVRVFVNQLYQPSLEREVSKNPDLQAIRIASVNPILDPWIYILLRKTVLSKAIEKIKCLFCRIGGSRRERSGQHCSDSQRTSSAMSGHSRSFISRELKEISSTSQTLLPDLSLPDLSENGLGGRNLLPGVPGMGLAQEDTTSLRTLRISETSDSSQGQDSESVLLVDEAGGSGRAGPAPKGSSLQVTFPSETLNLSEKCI

Question: For `O=C(N1CCS(=O)(=O)CC1)N1C[C@H](c2ccc(OC(F)(F)F)cc2)C[C@H](c2nc(C3CC3)no2)C1` [BAY-386], which inhibition (Rattus norvegicus [1]) is on record?
Answer: Its inhibition is 11%.

Question: And the pIC50 (Platelet [2])?
Answer: The pIC50 was 6.85.

Question: And the inhibition [3]?
Answer: Its inhibition is 88%.

Question: And the inhibition (Mus musculus)?
Answer: The inhibition was 5%.

Question: And the inhibition (Homo sapiens)?
Answer: Its inhibition is -4%.

Question: And the IC50 (Platelet [4])?
Answer: The IC50 was > 100000 nM (not active).

Question: What about the inhibition [5] of the same compound?
Answer: The inhibition was -1.24%.

Question: What about the inhibition [6] of the same compound?
Answer: Its inhibition is 17%.

Question: What about the inhibition at 60 min, 10 µM (hERG (KCNH2)) of the same compound?
Answer: Its inhibition at 60 min, 10 µM is 22% (not active).

Question: What about the inhibition [7] of the same compound?
Answer: Its inhibition is -7%.

Question: And the inhibition [8]?
Answer: Its inhibition is -3%.

Question: What about the inhibition [9] of the same compound?
Answer: Its inhibition is -1%.

Question: What about the inhibition [10] of the same compound?
Answer: Its inhibition is -6%.

Question: What about the inhibition (Rattus norvegicus [11]) of the same compound?
Answer: The inhibition was 0%.

Question: What about the inhibition [12] of the same compound?
Answer: Its inhibition is 10%.

Question: What about the inhibition (Rattus norvegicus [13]) of the same compound?
Answer: The inhibition was 11%.

Question: What about the inhibition [14] of the same compound?
Answer: Its inhibition is 12%.

Question: And the inhibition [15]?
Answer: Its inhibition is 9.25%.

Question: What about the inhibition [16] of the same compound?
Answer: Its inhibition is 12%.

Question: What about the inhibition [17] of the same compound?
Answer: The inhibition was 40.3%.

Question: What about the inhibition [18] of the same compound?
Answer: Its inhibition is 6%.

Question: What about the IC50 [19] of the same compound?
Answer: The IC50 was 56 nM (active).

Question: And the inhibition [20]?
Answer: Its inhibition is 10%.

Question: And the inhibition [21]?
Answer: The inhibition was 0%.

Question: What about the inhibition (Rattus norvegicus [22]) of the same compound?
Answer: The inhibition was 3%.

Question: And the inhibition [23]?
Answer: The inhibition was 1%.

Question: Which results are given for `Cc1noc([C@H]2C[C@@H](c3ccc(C(F)(F)F)cc3)CN(C(=O)N3CCS(=O)(=O)C3)C2)n1` [BAY-448]?
Answer: % Inhibition of Control Agonist Response (Mean n=2) [24]: 1.3%; % of Control Agonist Response (Mean n=2) [24]: 9%; inhibition [25]: 12.8%; inhibition [26]: 21.5%
